Laboratory results reported in ChEMBL document CHEMBL4814067, “An optimized analog of antimicrobial peptide Jelleine-1 shows enhanced antimicrobial activity against multidrug resistant P. aeruginosa and negligible toxicity in vitro and in vivo” (Eur J Med Chem, 2021).
In brackets after ≈: the same amount, converted by molar mass. Activity calls are given as the source filed them. The rule behind the calls is not given here. Positions of bridges follow the written chain, without caps; N, C: chain ends. Non-standard residues stand in square brackets, D forms with d. Residues, ends and D or L forms follow the SMILES beside them. *: point of attachment. X1 = CC[C@H](C)CCCCC(=O)*; Dab = NCC[C@H](N)C(=O)O

Experiments:
Enterobacter sp. = assay: Antibacterial activity against Enterobacter sakazakii ATCC 29544 assessed as transparent well by visual inspection after 18 hrs by CLSI based-broth microdilution method; format: functional
Bacillus subtilis = assay: Antibacterial activity against Bacillus subtilis ATCC 23857 assessed as transparent well by visual inspection after 18 hrs by CLSI based-broth microdilution method; format: functional
Pseudomonas aeruginosa [1] = assay: Antibacterial activity against Pseudomonas aeruginosa ATCC 27853 assessed as transparent well by visual inspection after 18 hrs by CLSI based-broth microdilution method; format: functional
[2] = tested on: Staphylococcus epidermidis; assay: Antibacterial activity against Staphylococcus epidermidis ATCC 12228 assessed as transparent well by visual inspection after 18 hrs by CLSI based-broth microdilution method; format: functional
Staphylococcus aureus [3] = assay: Antibacterial activity against Staphylococcus aureus ATCC 29213 assessed as transparent well by visual inspection after 18 hrs by CLSI based-broth microdilution method; format: functional; settings: C1 ATCC 29213
Escherichia coli [4] = assay: Antibacterial activity against Escherichia coli ATCC 25922 assessed as transparent well by visual inspection after 18 hrs by CLSI based-broth microdilution method; format: functional
Staphylococcus aureus [5] = assay: Bactericidal activity against Staphylococcus aureus assessed as killing effect at 2 times MIC measured at 60 mins by bacterial colony counting assay; format: functional; settings: 1 h
Escherichia coli [6] = assay: Bactericidal activity against Escherichia coli assessed as killing effect at 1 times MIC measured at 120 mins by bacterial colony counting assay; format: functional, organism-based
Staphylococcus aureus [7] = assay: Antibacterial activity against methicillin resistant Staphylococcus aureus clinical isolate 3 assessed as transparent well by visual inspection after 18 hrs by CLSI based-broth microdilution method; format: functional
Staphylococcus aureus [8] = assay: Antibacterial activity against methicillin resistant Staphylococcus aureus clinical isolate 4 assessed as transparent well by visual inspection after 18 hrs by CLSI based-broth microdilution method; format: functional
Escherichia coli [9] = assay: Antibacterial activity against ESBL-producing Escherichia coli clinical isolate 1 assessed as transparent well by visual inspection after 18 hrs by CLSI based-broth microdilution method; format: functional
Pseudomonas aeruginosa [10] = assay: Antibacterial activity against Pseudomonas aeruginosa clinical isolate assessed as transparent well by visual inspection after 18 hrs by CLSI based-broth microdilution method; format: functional
Pseudomonas aeruginosa [11] = assay: Inhibition of biofilm formation in multidrug-resistant Pseudomonas aeruginosa at 256 uM measured after 24 hrs by crystal violet staining based assay; format: functional, organism-based
Staphylococcus aureus [12] = assay: Bactericidal activity against Staphylococcus aureus assessed as killing effect at 1 times MIC measured at 120 mins by bacterial colony counting assay; format: functional, organism-based
Cell membrane [13] = assay: Induction of outer membrane permeabilization in Escherichia coli using NPN hydrophobic fluorescent probe at 1 to 8 times of MIC measured for 15 mins by multimode reader
Escherichia coli [14] = assay: Bactericidal activity against Escherichia coli assessed as killing effect at 2 times MIC measured at 60 mins by bacterial colony counting assay; format: functional; settings: 1 h
Escherichia coli [15] = assay: Antibacterial activity against ESBL-producing Escherichia coli clinical isolate 3 assessed as transparent well by visual inspection after 18 hrs by CLSI based-broth microdilution method; format: functional
Escherichia coli [16] = assay: Antibacterial activity against ESBL-producing Escherichia coli clinical isolate 5 assessed as transparent well by visual inspection after 18 hrs by CLSI based-broth microdilution method; format: functional
Escherichia coli [17] = assay: Antibacterial activity against ESBL-producing Escherichia coli clinical isolate 2 assessed as transparent well by visual inspection after 18 hrs by CLSI based-broth microdilution method; format: functional
Staphylococcus aureus [18] = assay: Antibacterial activity against methicillin resistant Staphylococcus aureus clinical isolate 2 assessed as transparent well by visual inspection after 18 hrs by CLSI based-broth microdilution method; format: functional
Escherichia coli [19] = assay: Antibacterial activity against ESBL-producing Escherichia coli clinical isolate 4 assessed as transparent well by visual inspection after 18 hrs by CLSI based-broth microdilution method; format: functional
Erythrocyte = assay: Haemolytic activity in human erythrocytes by optical absorption assay; format: ADME, cell-based
NIH3T3 = assay: Cytotoxicity against mouse NIH/3T3 assessed as reduction in cell viability measured after 24 hrs by MTT assay; format: cell-based; settings: nih3t3, 24 h
RAW264.7 = assay: Cytotoxicity against mouse RAW264.7 assessed as reduction in cell viability measured after 24 hrs by MTT assay; format: cell-based; settings: raw264.7, 24 h
Staphylococcus aureus [20] = assay: Antibacterial activity against methicillin resistant Staphylococcus aureus clinical isolate 1 assessed as transparent well by visual inspection after 18 hrs by CLSI based-broth microdilution method; format: functional; settings: C1
Cell membrane [21] = assay: Induction of inner membrane permeabilization in Escherichia coli ML-35 assessed as increase in ONPG at 1 to 8 times of MIC measured 100 mins by multimode reader
HeLa = assay: Cytotoxicity against human HeLa cells assessed as reduction in cell viability measured after 24 hrs by MTT assay; format: cell-based
Pseudomonas aeruginosa [22] = assay: Inhibition of biofilm formation in multidrug-resistant Pseudomonas aeruginosa at 64 uM measured after 24 hrs by crystal violet staining based assay; format: functional
Pseudomonas aeruginosa [23] = assay: Antimicrobial activity against multidrug-resistant Pseudomonas aeruginosa infected in peritonitis sepsis mouse model assessed as increase in mouse survival rate at 10 mg/kg, ip measured after 3 days; format: functional, organism-based; settings: time 3.0 day
Staphylococcus aureus [24] = assay: Bactericidal activity against Staphylococcus aureus assessed as killing effect at 1 times MIC measured at 240 mins by bacterial colony counting assay; format: functional, organism-based
[25] = Toxicity in mouse assessed as effect on aspartate transaminase level at 10 to 30 mg/kg, ip measured after 8 days; format: organism-based; settings: in vivo, 192 h, dose 10-30 mg/kg, time 8 day
[26] = Toxicity in mouse assessed as effect on total albumin level at 10 to 30 mg/kg, ip measured after 8 days; format: organism-based; settings: in vivo, 192 h, dose 10-30 mg/kg, time 8 day
[27] = Toxicity in mouse assessed as effect on body weight at 10 to 30 mg/kg, ip measured after 8 days; format: organism-based; settings: in vivo, 192 h, dose 10-30 mg/kg, time 8 day
[28] = Toxicity in mouse assessed as effect on total protein level at 10 to 30 mg/kg, ip measured after 8 days; format: organism-based; settings: in vivo, 192 h, dose 10-30 mg/kg, time 8 day
Pseudomonas aeruginosa [29] = assay: Antimicrobial activity against multidrug-resistant Pseudomonas aeruginosa infected in peritonitis sepsis mouse model assessed as increase in mouse survival rate at 30 mg/kg, ip measured after 7 days; format: functional, organism-based; settings: time 7.0 day
[30] = Toxicity in mouse assessed as effect on alanine aminotransferase level at 10 to 30 mg/kg, ip measured after 8 days; format: organism-based; settings: in vivo, 192 h, dose 10-30 mg/kg, time 8 day

MIC (Enterobacter sp.) | MIC (Bacillus subtilis) | MIC (Pseudomonas aeruginosa [1]) | MIC [2] | MIC (Staphylococcus aureus [3]) | MIC (Escherichia coli [4]) | Molecule | MIC (Staphylococcus aureus [7]) | MIC (Staphylococcus aureus [8]) | MIC (Escherichia coli [9]) | MIC (Pseudomonas aeruginosa [10]) | MIC (Escherichia coli [15]) | MIC (Escherichia coli [16]) | MIC (Escherichia coli [17]) | MIC (Staphylococcus aureus [18]) | MIC (Escherichia coli [19]) | MIC (Staphylococcus aureus [20]) | also measured
32 µM | 16 µM | 32 µM | 16 µM | 128 µM | 32 µM | H-PFKLKLKL-OH |  |  |  |  |  |  |  |  |  |  | 
16 µM | 16 µM | 32 µM | 8 µM | 32 µM | 16 µM | H-PWRLSLHL-OH |  |  |  |  |  |  |  |  |  |  | 
32 µM | 16 µM | 32 µM | 16 µM | 128 µM | 32 µM | H-PFKLSLKL-OH |  |  |  |  |  |  |  |  |  |  | 
32 µM | 16 µM | 32 µM | 34 µM | 128 µM | 16 µM | H-PFRLRLHL-OH |  |  |  |  |  |  |  |  |  |  | 
16 µM | 16 µM | 64 µM | 16 µM | 32 µM | 16 µM | H-PWKLKLKL-OH |  |  |  |  |  |  |  |  |  |  | 
16 µM | 16 µM | 32 µM | 32 µM | 64 µM | 16 µM | H-PWKLKLHL-OH |  |  |  |  |  |  |  |  |  |  | 

Molecule | MIC (Enterobacter sp.) | MIC (Bacillus subtilis) | MIC (Pseudomonas aeruginosa [1]) | MIC [2] | MIC (Staphylococcus aureus [3]) | MIC (Escherichia coli [4]) | MIC (Staphylococcus aureus [7]) | MIC (Staphylococcus aureus [8]) | MIC (Escherichia coli [9]) | MIC (Pseudomonas aeruginosa [10]) | MIC (Escherichia coli [15]) | MIC (Escherichia coli [16]) | MIC (Escherichia coli [17]) | MIC (Staphylococcus aureus [18]) | MIC (Escherichia coli [19]) | MIC (Staphylococcus aureus [20]) | also measured
H-PFRLRLRL-OH | 32 µM | 8 µM | 8 µM | 16 µM | 64 µM | 8 µM | 64 µM | 64 µM | 8 µM | 8 µM | 8 µM | 8 µM | 8 µM | 64 µM | 8 µM | 64 µM | Activity (Staphylococcus aureus [5]): 100%; Activity (Escherichia coli [6]): Active; inhibition (Pseudomonas aeruginosa [11]): Active; Activity (Staphylococcus aureus [12]): Active; Activity (Cell membrane [13]): Dose-Dependent Effect; Activity (Escherichia coli [14]): 100%; Activity (Erythrocyte): Non-Toxic; Activity (NIH3T3): Non-Toxic; Activity (RAW264.7): Non-Toxic; Activity (Cell membrane [21]): Active; Activity (HeLa): Non-Toxic
H-PWRLRLRL-OH | 8 µM | 4 µM | 8 µM | 8 µM | 32 µM | 4 µM | 32 µM | 32 µM | 4 µM | 8 µM | 4 µM | 4 µM | 4 µM | 32 µM | 4 µM | 32 µM | Activity (Staphylococcus aureus [5]): 100%; Activity (Escherichia coli [6]): Active; inhibition at 64 µM (Pseudomonas aeruginosa [22]): 74.6%; Activity (Pseudomonas aeruginosa [23]): inactive; Activity (Staphylococcus aureus [24]): Active; Activity [25]: Non-Toxic; Activity (Cell membrane [13]): Dose-Dependent Effect; Activity (Escherichia coli [14]): 100%; Activity [26]: Non-Toxic; Activity [27]: Non-Toxic; Activity [28]: Non-Toxic; Activity (Pseudomonas aeruginosa [29]): Active; Activity (Erythrocyte): Non-Toxic; Activity (NIH3T3): Non-Toxic; Activity (RAW264.7): Non-Toxic; Activity (Cell membrane [21]): Active; Activity [30]: Non-Toxic; Activity (HeLa): Non-Toxic
CC[C@H](C)CCCCC(=O)N[C@@H](CCN)C(=O)N[C@H](C(=O)N[C@@H](CCN)C(=O)N[C@H]1CCNC(=O)[C@H]([C@@H](C)O)NC(=O)[C@H](CCN)NC(=O)[C@H](CCN)NC(=O)[C@H](CC(C)C)NC(=O)[C@@H](Cc2ccccc2)NC(=O)[C@H](CCN)NC1=O)[C@@H](C)O (X1-[Dab]T[Dab][Dab][Dab][dF]L[Dab][Dab]T; lactam 4-C) | 0.5 µM (≈ 0.602 µg/mL) | 2 µM (≈ 2.41 µg/mL) | 1 µM (≈ 1.2 µg/mL) | 2 µM (≈ 2.41 µg/mL) | 8 µM (≈ 9.63 µg/mL) | 0.5 µM (≈ 0.602 µg/mL) | 8 µM (≈ 9.63 µg/mL) | 8 µM (≈ 9.63 µg/mL) | 0.5 µM (≈ 0.602 µg/mL) | 1 µM (≈ 1.2 µg/mL) | 0.5 µM (≈ 0.602 µg/mL) | 0.5 µM (≈ 0.602 µg/mL) | 0.5 µM (≈ 0.602 µg/mL) | 8 µM (≈ 9.63 µg/mL) | 0.5 µM (≈ 0.602 µg/mL) | 8 µM (≈ 9.63 µg/mL) | 
